Results taken from PubChem BioAssay (NCI).
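Following 48 hours of exposure in 96-well plates, responses at five concentrations were used to interpolate endpoints linearly. Here, GI50 denotes the concentration required for 50% inhibition of growth. TGI is the concentration that stops growth completely.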 *1 amine or outer side, *2 acyl side, *3 side chain or, on linkers, in order; H or OH if unused. Where a SMILES comes first, the peptide text is derived from it. [ ]: non-standard residue; d: D form. The star is where a group is joined. X31 = CC(=O)N(C)SCC(N[*:1])C(=O)[*:2]; Cbz = O=C(OCc1ccccc1)*; Bn = c1ccc(C*)cc1; For = O=C*

Legend:
Test in all cases: NCI tumour cell line growth inhibition, 48 h
[1] = test system: SNB-75 CNS
[2] = test system: IGROV1 ovarian
[3] = test system: OVCAR-3 ovarian
[4] = test system: HS 578T breast
[5] = test system: COLO 205 colon
[6] = test system: SK-OV-3 ovarian
[7] = test system: HCT-15 colon
[8] = test system: M14 melanoma
[9] = test system: K-562 leukemia
[10] = test system: HL-60(TB) leukemia
[11] = test system: LOX IMVI melanoma

Row | Structure (SMILES) | GI50 [1] [µM] | TGI [1] [µM] | GI50 [2] [µM] | TGI [2] [µM] | TGI [3] [µM] | TGI [4] [µM] | TGI [5] [µM] | TGI [6] [µM] | TGI [7] [µM] | TGI [8] [µM] | TGI [9] [µM] | TGI [10] [µM] | TGI [11] [µM]
1 | CCOC(=O)c1cnc2oc3ccc(O)cc3c2c1C | 26 | 82.9 | 86.2 | > 100 | > 100 | > 100 | > 100 | > 100 | > 100 | > 100 | > 100 | > 100 | > 100
2 | CCOC(=O)P(=O)(O)c1ccc(N(C)Cc2ccccc2)cc1 |  | > 100 |  | > 100 | > 100 | > 100 | > 100 | > 100 | > 100 | > 100 | > 100 | > 100 | > 100
3 | CCCCCCCCCCCCCCCCCCNC(=O)C(N)Cc1ccc(OCc2ccccc2)cn1 (configuration not stated) |  | 47.4 |  | 32.6 | 49.6 | 51.1 | 28.8 | 40.2 | 37.3 | 33.3 | 95.1 | 37.1 | 41.2
4 | CCOC(CN(C)C(=O)Nc1cccc2ccccc12)OCC |  | > 10 |  | > 10 | > 10 | > 10 | > 10 | > 10 | > 10 | > 10 | > 10 | > 10 | > 10
5 | CCc1c2c([nH]c(=S)c1C#N)CCC2 |  | > 100 |  | > 100 | > 100 | > 100 | > 100 | > 100 | > 100 | > 100 | > 100 | > 100 | > 100
6 | CC(=O)N(C)SCC(NC(=O)C(Cc1ccccc1)NC(=O)OCc1ccccc1)C(=O)NC(Cc1ccccc1)C(=O)NC(Cc1cn(C=O)c2ccccc12)C(=O)NC(CCCCNC(=O)OCc1ccccc1)C(=O)NC(C(=O)NC(CSN(C)C(C)=O)C(=O)NC(C(N)=O)C(C)OCc1ccccc1)C(C)OCc1ccccc1 (configuration not stated) (Cbz-F[X31]FW(For)K(Cbz)T(Bn)[X31]T(Bn)-NH2; configuration not given here) |  | 36.9 |  | > 100 | > 100 | > 100 | > 100 | 96.1 | > 100 | > 100 | > 100 | > 100 | > 100
7 | COC(=O)c1ccc(C)cc1CC1Cc2cc(C)ccc2C1=O (configuration not stated) |  | > 100 |  | > 100 | > 100 | > 100 | > 100 | > 100 | > 100 | > 100 | > 100 | > 100 | > 100
8 | CC(=O)NC1C(OCc2ccccc2)OC(CO)C(O)C1OC(C)C(=O)NC(C(=O)N[C@@H](CCC(=O)NCCNCCNc1c2ccccc2nc2cccc([N+](=O)[O-])c12)C(N)=O)C(C)C (some centres not stated) |  | > 100 |  | > 100 | > 100 | > 100 | 56.7 | > 100 | > 100 | 32.2 | 19.9 | > 100 | > 100
9 | CCOc1cc(NC(C)=O)ccc1C(=O)NN1C(=O)C(Cl)C1c1ccccc1 (configuration not stated) |  | 29.7 |  | 18 | 34.2 | 83.1 | 31.8 | 31.7 | 45.4 | 27 | 23.9 | 36.1 | 3.55
10 | CC(=O)C(=C(c1ccccc1)c1ccccc1)c1ccccc1 |  | > 100 |  |  | > 100 | > 100 | > 100 | > 100 | > 100 | > 100 | > 100 | > 100 | > 100
11 | COc1ccc(Nc2nnc(-c3nsc4ccccc34)s2)cc1 |  | 17.3 |  | > 100 | > 100 | > 100 | > 100 | 19 | > 100 | > 100 | > 100 | > 100 | > 100
12 | C=CCNC1=C2C[C@@H](C)C[C@@H](OC)[C@H](OC(=O)CCN)[C@H](C)/C=C(\C)[C@@H](OC(N)=O)[C@H](OC)/C=C\C=C(/C)C(=O)NC(=CC1=O)C2=O |  | 9.63 |  | 19.6 | 6.56 | 52.9 | 10.1 | 11 | 23.7 | 17.3 | > 100 | 17.9 | 10.8
13 | Cc1csc2c(=O)n(C3OC(CO)C(O)C3O)c(=O)[nH]c12 (configuration not stated) |  | > 100 |  | > 100 | > 100 | > 100 | > 100 |  |  | > 100 | > 100 | > 100 | > 100
14 | CC[C@]1(Cc2ccc(OC)c(OC)c2)C=[N+]([O-])O[C@H](OC2CCCC2(c2ccccc2)c2ccccc2)[C@@H]1OC(=O)c1ccccc1 (some centres not stated) |  | > 37.9 |  | > 100 | 13.7 | > 100 | > 100 | > 100 | > 100 | > 100 | > 100 | > 100 | > 27.5
15 | CNc1ncnc2c1ncn2C1C=CC(COS(N)(=O)=O)C1 (configuration not stated) |  | > 100 |  | > 100 | > 100 | > 100 | > 100 | > 100 | > 100 | > 100 | > 100 | > 100 | > 100
16 | O=C1/C(=C/c2cccc(F)c2)CCCc2ccccc21 |  | 41.3 |  | 24.6 | 28.6 | 28.5 | 36.4 | 68.2 | 29.3 | 26.8 | 32.1 | 62.9 | 30.1
17 | Cn1c2ccccc2n2c(N=O)c(-c3ccccc3)nc12 |  | 49.8 |  | > 100 | > 100 | > 100 | 22.6 | > 100 | > 100 | 62.2 | > 100 | > 100 | > 100
18 | CC(C)Cn1cnc2c(NCC(C)O)nc3ccccc3c21 (configuration not stated) |  | > 100 |  | > 100 | > 100 | > 100 | > 100 | > 100 | > 100 | > 100 | > 100 | > 100 | > 100
19 | Cc1ccc2c(c1)[nH]c(=S)n2/C=C1\C(=O)Oc2ccccc2C1=O |  | > 100 |  | > 100 | > 100 | > 100 | > 100 |  | > 100 | > 100 | > 100 | > 100 | > 100
